According to patent publication US10273222B2 (CELGENE QUANTICEL RESEARCH, INC., priority 2013, dated 2019):

Legend:
[1] = target: Jarid1A (Homo sapiens (Human), UniProt P29375); test: Jarid1A in vitro enzyme inhibition assay (TR-FRET); type: biochemical
Source text: The enzymatic assay of Jarid1A activity is based upon Time Resolved-Fluorescence Resonance Energy Transfer (TR-FRET) detection.

[2] = target: Jarid1B (Homo sapiens (Human), UniProt Q9UGL1); test: Jarid1B in vitro enzyme inhibition assay (TR-FRET); type: biochemical
[3] = target: JMJD2C (Homo sapiens (Human), UniProt Q9H3R0); test: JMJD2C in vitro enzyme inhibition assay (TR-FRET); type: biochemical
[4] = target: JMJD2A (Homo sapiens (Human), UniProt O75164); test: JMJD2A in vitro enzyme inhibition assay (TR-FRET); type: biochemical
Method: This assay determines the ability of a test compound to inhibit Jarid1A, Jarid1B, JMJD2C, and JMJD2A demethylase activity. […] Baculovirus expressed JMJD2A (GenBank Accession #NM_014663, AA 1-350) was purchased from BPS Bioscience (Cat#50123).
The ability of test compounds to inhibit the activity of JMJD2A was determined in 384-well plate format under the following reaction conditions: 2 nM JMJD2A, 300 nM H3K9me3-biotin labeled peptide (Anaspec cat #64360), 2 μM alpha-ketoglutaric acid in assay buffer of 50 mM HEPES, pH7.3, 0.005% Brij35, 0.5 mM TCEP, 0.2 mg/ml BSA, 50 μM sodium L-ascorbate, and 2 μM ammonium iron(II) sulfate. Reaction product was determined quantitatively by TR-FRET after the addition of detection reagent Phycolink Streptavidin-allophycocyanin (Prozyme) and Europium-anti-di-methylated histone H3 lysine 9 (H3K9me2) antibody (PerkinElmer) in the presence of 5 mM EDTA in LANCE detection buffer (PerkinElmer) at a final concentration of 50 nM and 1 nM, respectively.
The assay reaction was initiated by the following: 2 μl of the mixture of 900 nM H3K9me3-biotin labeled peptide and 6 μM alpha-ketoglutaric acid with 2 μl of 11-point serial diluted inhibitor in 3% DMSO were added to each well of plate, followed by the addition of 2 μl of 6 nM JMJD2A to initiate the reaction. The reaction mixture was incubated at room temperature for 30 minutes, and terminated by the addition of 6 μl of 5 mM EDTA in LANCE detection buffer containing 100 nM Phycolink Streptavidin-allophycocyanin and 2 nM Europium-anti-H3K9me2 antibody. Plates were read by EnVisionMultilabel Reader in TR-FRET mode (excitation at 320 nm, emission at 615 nm and 665 nm) after 1 hour incubation at room temperature. A ratio was calculated (665/615) for each well and fitted to determine inhibition constant (IC50).

[5] = target: FBXL10 (Homo sapiens (Human), UniProt Q8NHM5); test: FBXL10 in vitro enzyme inhibition assay (AlphaScreen); type: biochemical
Method in brief: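 AlphaScreen read-out of H3K36me1 product, detected with anti-H3K36me1 antibody plus streptavidin donor and Protein A acceptor beads (final 10 μg/ml) in 50 mM HEPES pH 7.3, 10 mM NaCl, 0.005% Brij35, 5 mM EDTA, 2 mg/ml BSA. Beads incubated 2 h to overnight at room temperature; IC50 derived from AlphaScreen signal.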

[6] = tested on: KDM5A and KDM5B; test: In vitro cell-based assay: tri-methyl H3K4 immuno-blotting in ZR-75-1 cells (cellular inhibition of KDM5A/B); conditions: ZR-75-1 breast cancer cells, 72 hours, tri-methylated H3K4 level; read-out: IC50 ZR-75-1 cell-MOA
Method: This quantitative immuno-blotting assay measures the amount tri-methylated histone H3 at amino acid Lysine number 4, a specific substrate and product of the direct enzymatic activity of the histone demethylases KDM5A and KDM5B from extracts of the ZR-75-1 breast cancer cell line.
This assay is a fluorometric immunoassay for the quantification of tri-methyl H3K4 extracted from cells treated with test compound and is used as a measure of the cellular inhibition of KDM5A/B.
Extracts were prepared containing all of the cellular histone material using detergent based lysis and sonication methods. These lysates were subsequently normalized for total protein content using a colorimetric bicinchonic acid assay (MicroBCA Pierce/Thermo Scientific). Normalized cell extracts were then subjected to typical immuno-blotting procedures using NuPage reagents (Life Technologies). Electrophoretically separated histones were then transferred and immobilized using polyvinylidene difluoride membrane (Immobilon-FL Millipore). The amount of tri-methylated lysine 4 of histone H3 was detected using an antibody specific to the tri-methylated state (Cell Signaling Technologies) and quantified on an infrared imager using a densitometry software package (Odyssey CLx, Image Studio, Li-Cor). This background subtracted densitometry value was reported as a ration of the GAPDH amount for that sample and then calculated as a percent of the DMSO treated sample. The software package XL-fit (IDBS) was then used to calculate a relative IC50 value for the dilution series of a given test compound according to the equation: fit=(D+((Vmax*(x^n))/((x^n)+(Km^n)))).

Sequence of JMJD2A (O75164 1-350): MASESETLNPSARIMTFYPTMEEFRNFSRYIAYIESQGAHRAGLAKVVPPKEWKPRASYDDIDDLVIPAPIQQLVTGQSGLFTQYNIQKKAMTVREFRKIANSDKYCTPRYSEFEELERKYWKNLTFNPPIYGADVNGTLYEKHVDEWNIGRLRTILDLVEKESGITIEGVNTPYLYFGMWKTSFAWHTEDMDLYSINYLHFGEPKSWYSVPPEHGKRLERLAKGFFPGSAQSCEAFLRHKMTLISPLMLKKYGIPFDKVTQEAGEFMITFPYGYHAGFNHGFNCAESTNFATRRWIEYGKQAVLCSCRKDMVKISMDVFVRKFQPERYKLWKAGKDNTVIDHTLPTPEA
Sequence of Jarid1B (Q9UGL1 2-751): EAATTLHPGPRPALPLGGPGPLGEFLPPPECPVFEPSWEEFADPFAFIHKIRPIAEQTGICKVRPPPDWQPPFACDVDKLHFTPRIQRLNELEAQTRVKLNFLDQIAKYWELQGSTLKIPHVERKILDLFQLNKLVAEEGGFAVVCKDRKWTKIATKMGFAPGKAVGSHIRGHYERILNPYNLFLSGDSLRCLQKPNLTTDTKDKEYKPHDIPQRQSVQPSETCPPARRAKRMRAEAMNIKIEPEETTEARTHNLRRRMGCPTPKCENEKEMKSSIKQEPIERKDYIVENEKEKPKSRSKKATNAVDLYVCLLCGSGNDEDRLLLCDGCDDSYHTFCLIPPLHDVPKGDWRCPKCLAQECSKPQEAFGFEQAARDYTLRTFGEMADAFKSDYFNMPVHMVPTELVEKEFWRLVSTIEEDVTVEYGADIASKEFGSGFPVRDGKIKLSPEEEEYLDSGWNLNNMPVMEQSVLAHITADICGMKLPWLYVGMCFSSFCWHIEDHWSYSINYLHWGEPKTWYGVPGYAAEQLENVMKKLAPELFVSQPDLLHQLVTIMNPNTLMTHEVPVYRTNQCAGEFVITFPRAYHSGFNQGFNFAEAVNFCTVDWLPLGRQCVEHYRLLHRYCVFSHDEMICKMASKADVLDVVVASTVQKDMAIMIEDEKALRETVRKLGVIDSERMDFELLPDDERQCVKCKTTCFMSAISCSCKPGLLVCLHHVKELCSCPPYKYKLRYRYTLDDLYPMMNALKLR
Sequence of JMJD2C (Q9H3R0 2-372): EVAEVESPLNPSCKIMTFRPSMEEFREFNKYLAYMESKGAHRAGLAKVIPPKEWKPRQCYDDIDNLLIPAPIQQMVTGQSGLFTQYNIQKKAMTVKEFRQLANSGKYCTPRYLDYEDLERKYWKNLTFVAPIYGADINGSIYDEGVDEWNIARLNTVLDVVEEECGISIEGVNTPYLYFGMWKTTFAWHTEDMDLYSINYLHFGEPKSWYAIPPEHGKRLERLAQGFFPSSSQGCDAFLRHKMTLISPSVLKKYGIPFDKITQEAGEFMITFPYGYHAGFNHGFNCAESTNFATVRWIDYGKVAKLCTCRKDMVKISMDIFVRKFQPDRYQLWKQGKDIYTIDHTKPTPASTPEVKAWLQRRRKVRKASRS
Sequence of FBXL10 (Q8NHM5 1-650): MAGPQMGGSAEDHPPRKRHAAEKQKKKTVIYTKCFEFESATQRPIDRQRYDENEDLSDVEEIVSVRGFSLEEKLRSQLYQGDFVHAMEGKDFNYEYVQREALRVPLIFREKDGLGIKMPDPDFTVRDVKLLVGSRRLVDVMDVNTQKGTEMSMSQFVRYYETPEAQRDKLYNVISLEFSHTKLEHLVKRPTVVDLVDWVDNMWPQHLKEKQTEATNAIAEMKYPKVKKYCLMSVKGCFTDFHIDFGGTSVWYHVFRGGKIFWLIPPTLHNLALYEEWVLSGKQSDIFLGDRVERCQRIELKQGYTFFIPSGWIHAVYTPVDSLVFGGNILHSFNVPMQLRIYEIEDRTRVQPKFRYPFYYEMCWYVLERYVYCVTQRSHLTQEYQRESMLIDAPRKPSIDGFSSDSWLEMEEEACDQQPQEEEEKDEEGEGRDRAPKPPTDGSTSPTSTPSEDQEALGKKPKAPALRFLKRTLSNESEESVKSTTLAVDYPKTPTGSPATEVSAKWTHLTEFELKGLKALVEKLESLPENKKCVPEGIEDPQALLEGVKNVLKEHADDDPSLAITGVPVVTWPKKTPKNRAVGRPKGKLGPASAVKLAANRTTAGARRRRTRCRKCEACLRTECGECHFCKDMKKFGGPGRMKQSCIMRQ
Sequence of Jarid1A (P29375 1-1090): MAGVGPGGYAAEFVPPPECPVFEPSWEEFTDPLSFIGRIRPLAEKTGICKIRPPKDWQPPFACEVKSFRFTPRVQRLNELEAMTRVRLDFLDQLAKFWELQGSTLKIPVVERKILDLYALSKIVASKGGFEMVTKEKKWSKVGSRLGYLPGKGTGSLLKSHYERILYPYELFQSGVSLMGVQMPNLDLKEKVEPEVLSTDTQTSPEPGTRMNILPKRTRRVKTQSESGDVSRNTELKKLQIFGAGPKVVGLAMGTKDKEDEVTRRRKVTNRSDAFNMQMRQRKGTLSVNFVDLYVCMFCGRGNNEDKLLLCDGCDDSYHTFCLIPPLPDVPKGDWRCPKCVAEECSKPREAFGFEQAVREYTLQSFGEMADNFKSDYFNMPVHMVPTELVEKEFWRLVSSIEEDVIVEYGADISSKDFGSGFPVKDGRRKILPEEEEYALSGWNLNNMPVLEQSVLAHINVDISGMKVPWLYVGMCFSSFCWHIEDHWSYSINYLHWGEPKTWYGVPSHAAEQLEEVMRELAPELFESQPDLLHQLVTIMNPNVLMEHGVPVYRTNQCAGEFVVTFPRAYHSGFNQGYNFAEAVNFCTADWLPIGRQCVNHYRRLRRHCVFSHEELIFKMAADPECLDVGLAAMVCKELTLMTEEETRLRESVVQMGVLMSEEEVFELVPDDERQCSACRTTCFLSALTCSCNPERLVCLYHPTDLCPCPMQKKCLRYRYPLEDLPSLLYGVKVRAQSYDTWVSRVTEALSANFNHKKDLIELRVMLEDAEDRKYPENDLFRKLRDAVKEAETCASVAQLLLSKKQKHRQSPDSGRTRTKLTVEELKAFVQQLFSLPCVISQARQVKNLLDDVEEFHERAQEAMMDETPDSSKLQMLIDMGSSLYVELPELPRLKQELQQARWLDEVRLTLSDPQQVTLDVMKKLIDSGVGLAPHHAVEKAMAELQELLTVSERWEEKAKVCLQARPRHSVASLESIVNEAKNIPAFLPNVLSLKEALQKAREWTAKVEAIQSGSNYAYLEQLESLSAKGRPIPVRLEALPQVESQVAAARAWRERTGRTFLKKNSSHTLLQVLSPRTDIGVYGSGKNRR

| Structure (SMILES) | IC50 [1] [nM] | IC50 [2] [nM] | IC50 [3] [nM] | IC50 [4] [nM] | IC50 [5] [nM] | IC50 [6] [nM] |
| --- | --- | --- | --- | --- | --- | --- |
| Cn1cnc(-c2cc(C(=O)O)ccn2)c1 [Example 1, 2-(1-methyl-1H-imidazol-4-yl)pyridine-4-carboxylic acid] | ≤ 100 | ≤ 100 | ≤ 100 | ≤ 100 | ≤ 100 | > 10000 |
| Cn1cnc(-c2cc(C(=O)O)ccn2)c1-c1ccc(F)cc1 [Example 23, 2-[5-(4-fluorophenyl)-1-methyl-1H-imidazol-4-yl]pyridine-4-carboxylic acid] | ≤ 100 | ≤ 100 | 100 to 1000 | 100 to 1000 | ≤ 100 | 1000 to 10000 |
| O=C(O)c1ccnc(-c2cn(CCN3CCCC3)cn2)c1 [Example 43, 2-{1-[2-(pyrrolidin-1-yl)ethyl]-1H-imidazol-4-yl}pyridine-4-carboxylic acid] | ≤ 100 | ≤ 100 | ≤ 100 | ≤ 100 | 1000 to 10000 | > 10000 |
| Cn1cnc(-c2cc(-c3nn[nH]n3)ccn2)c1 [Example 62, 2-(1-methyl-1H-imidazol-4-yl)-4-(2H-tetrazol-5-yl)pyridine] | 100 to 1000 | 100 to 1000 | > 10000 | > 10000 | ≤ 100 | > 10000 |
| O=C(O)c1ccnc(-c2cn(CCN(Cc3ccc(F)cc3)C3CC3)cn2)c1 [Example 71, 2-[1-[2-[cyclopropyl-[(4-fluorophenyl)methyl]amino]ethyl]imidazol-4-yl]pyridine-4-carboxylic acid] | ≤ 100 | ≤ 100 | ≤ 100 | ≤ 100 | ≤ 100 | 1000 to 10000 |
| O=C(O)c1ccnc(-c2cn(CCN3CCCc4ccccc43)cn2)c1 [Example 88, 2-[1-[2-(3,4-dihydro-2H-quinolin-1-yl)ethyl]imidazol-4-yl]pyridine-4-carboxylic acid] | ≤ 100 | ≤ 100 | 100 to 1000 | ≤ 100 | ≤ 100 | 1000 to 10000 |
| COc1ccccc1CCn1cnc(-c2cc(C(=O)O)ccn2)c1 [Example 95, 2-[1-[2-(2-methoxyphenyl)ethyl]imidazol-4-yl]pyridine-4-carboxylic acid] | ≤ 100 | ≤ 100 | 100 to 1000 | 100 to 1000 | ≤ 100 | > 10000 |
| Cc1ccccc1CCn1cnc(-c2cc(C(=O)O)ccn2)c1 [Example 96, 2-[1-[2-(2-methylphenyl)ethyl]imidazol-4-yl]pyridine-4-carboxylic acid] | ≤ 100 | ≤ 100 | 100 to 1000 | 100 to 1000 | ≤ 100 | 1000 to 10000 |
| O=C(O)c1ccnc(-c2cn(CCc3ccccc3Cl)cn2)c1 [Example 97, 2-[1-[2-(2-chlorophenyl)ethyl]imidazol-4-yl]pyridine-4-carboxylic acid] | ≤ 100 | ≤ 100 | 100 to 1000 | ≤ 100 | ≤ 100 | 1000 to 10000 |
| O=C(O)c1ccnc(-c2cn(CCc3ccccc3C(F)(F)F)cn2)c1 [Example 98, 2-[1-[2-[2-(trifluoromethyl)phenyl]ethyl]imidazol-4-yl]pyridine-4-carboxylic acid] | ≤ 100 | ≤ 100 | ≤ 100 | ≤ 100 | ≤ 100 | > 10000 |
| O=C(O)c1ccnc(-c2cn(Cc3cccc(F)c3)cn2)c1 [Example 104, 2-[1-[(3-fluorophenyl)methyl]imidazol-4-yl]pyridine-4-carboxylic] | ≤ 100 | ≤ 100 | 100 to 1000 |  | ≤ 100 | > 10000 |
| CC(Cc1ccccc1)n1cnc(-c2cc(C(=O)O)ccn2)c1 (stereo not shown) [Example 106, 2-[1-(1-phenylpropan-2-yl)imidazol-4-yl]pyridine-4-carboxylic acid] | ≤ 100 | ≤ 100 | 100 to 1000 |  | ≤ 100 | 1000 to 10000 |
